Test results from ChEMBL document CHEMBL3045698, “Structure and synthesis of a potent glutamate receptor antagonist in wasp venom” (Proc Natl Acad Sci U S A, 1988).
Calls of active or inactive are those of the source. No cut-off for these calls is given here.

Columns and labels:
Schistocerca gregaria [1] = experiment: Inhibition of quisqualate-sensitive glutamate receptor in Schistocerca gregaria (desert locust) muscle assessed as reduction in glutamate-evoked teitch contraction of locust metathoracic retractor unguis muscle at 0.1 Hz to 0.6 Hz stimulation frequency at 10 uM
Schistocerca gregaria [2] = experiment: Inhibition of quisqualate-sensitive glutamate receptor in Schistocerca gregaria (desert locust) muscle assessed as reduction in neurally-evoked teitch contraction of locust metathoracic retractor unguis muscle at 0.1 Hz to 0.6 Hz stimulation frequency at 25 uM

Compound	inhibition (Schistocerca gregaria [1]) [%]	inhibition (Schistocerca gregaria [2])
CCCC(=O)N[C@@H](Cc1ccc(O)cc1)C(=O)NCCCCNCCCNCCCN	> 90	Active
CCCC(=O)N[C@@H](Cc1ccc(O)cc1)C(=O)NCCCNCCCNCCCCN		Active
CCCC(=O)N[C@@H](Cc1ccc(O)cc1)C(=O)NCCCNCCCCNCCCN		Active
